Tests used:
[1] = target: EGFR Exon 20 INSNPH Ba/F3 (Homo sapiens, UniProt P00533, DUP771-773, cells depend on it); test: EGFR Exon 20 INSNPH Ba/F3 CellTiter-Glo; type: cell-based; settings: CellTiter-Glo, 72 h, read-out: EGFR Exon 20 INSNPH Ba/F3 CTG IC50
Procedure, shortened: (§1)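 Ba/F3 cells were seeded, left 24 h at 37 °C/5% CO2, then exposed to compound dilutions in DMSO for 72 h. Viability was read as ATP luminescence (CellTiter-Glo) and IC50 fitted from dose–response curves; DMSO and 10 μM staurosporine defined the controls, and plates needed Z′ ≥0.5.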

EGFR T790ML858R = EGFR T790ML858R (Homo sapiens, UniProt P00533, L858R/T790M); test: EGFR T790ML858R Lance assay; type: biochemical
Description: (§2) Inhibition is indicated as […] [nM] (“−”=not measured). Compounds having an activity designated as “A” provided an IC50≤100 nM; compounds having an activity designated as “B” provided an 100 nM<IC50≤500 nM; compounds having an activity designated as “C” provided an 500 nM<IC50≤1000 nM; compounds having an activity designated as “D” provided an 1000 nM<IC50≤100000 nM; and compounds having an activity designated as “E” provided an IC50>10000 nM.

EGFR wt = EGFR wt (Homo sapiens, UniProt P00533); test: EGFR wt Lance assay; type: biochemical
Description: as §2

H1975 = H1975 CellTiter-Glo; type: cell-based; settings: Homo sapiens, NCI-H1975; 72 h compound incubation; read-out: H1975 CTG IC50
Procedure, shortened: (§3)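 72 h compound exposure after 24 h attachment, 37° C./5% CO2; CellTiter-Glo ATP luminescence read-out; IC50 by dose-response fit; DMSO vehicle and 10 μM Staurosporine as controls; plates accepted only if Z′ ≥0.5.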

A431 = A431 CellTiter-Glo; type: cell-based; settings: Homo sapiens, A-431; 72 h compound incubation; read-out: A431 CTG IC50
Procedure, shortened: as §3

HER2 INS YVMA = target: T1, HER2 INS YVMA (Homo sapiens, UniProt P04626, INS775YVMA); test: Lance Kinase Activity Assay, HER2 INS YVMA (Her2 Exon 20 INSYVMA Lance); type: biochemical; settings: biochemical Lance assay
T1 construct: purchased DPF
Procedure, shortened: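 IC50 was fitted to sigmoidal curves of TR-FRET signal (665 and 615 nm emission after 340 nm excitation) from an Eu anti-phospho antibody binding the phosphorylated ULight peptide. The ATP-started reaction ran 1 h at RT and was then quenched with 10 mM EDTA plus antibody for a further 1 h. Compounds were tested as 8-point, 3-fold dilutions.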

[2] = target: Her2 Exon 20 INSYVMA Ba/F3 (Homo sapiens, UniProt P04626, DUP772-775, cells depend on it); test: Her2 Exon 20 INSYVMA Ba/F3 CellTiter-Glo; type: cell-based; settings: CellTiter-Glo, 72 h, read-out: Her2 Exon 20 INSYVMA Ba/F3 CTG IC50
Procedure, shortened: as §1

T1 sequence (P04626 with tags, fused parts or gaps INS775YVMA): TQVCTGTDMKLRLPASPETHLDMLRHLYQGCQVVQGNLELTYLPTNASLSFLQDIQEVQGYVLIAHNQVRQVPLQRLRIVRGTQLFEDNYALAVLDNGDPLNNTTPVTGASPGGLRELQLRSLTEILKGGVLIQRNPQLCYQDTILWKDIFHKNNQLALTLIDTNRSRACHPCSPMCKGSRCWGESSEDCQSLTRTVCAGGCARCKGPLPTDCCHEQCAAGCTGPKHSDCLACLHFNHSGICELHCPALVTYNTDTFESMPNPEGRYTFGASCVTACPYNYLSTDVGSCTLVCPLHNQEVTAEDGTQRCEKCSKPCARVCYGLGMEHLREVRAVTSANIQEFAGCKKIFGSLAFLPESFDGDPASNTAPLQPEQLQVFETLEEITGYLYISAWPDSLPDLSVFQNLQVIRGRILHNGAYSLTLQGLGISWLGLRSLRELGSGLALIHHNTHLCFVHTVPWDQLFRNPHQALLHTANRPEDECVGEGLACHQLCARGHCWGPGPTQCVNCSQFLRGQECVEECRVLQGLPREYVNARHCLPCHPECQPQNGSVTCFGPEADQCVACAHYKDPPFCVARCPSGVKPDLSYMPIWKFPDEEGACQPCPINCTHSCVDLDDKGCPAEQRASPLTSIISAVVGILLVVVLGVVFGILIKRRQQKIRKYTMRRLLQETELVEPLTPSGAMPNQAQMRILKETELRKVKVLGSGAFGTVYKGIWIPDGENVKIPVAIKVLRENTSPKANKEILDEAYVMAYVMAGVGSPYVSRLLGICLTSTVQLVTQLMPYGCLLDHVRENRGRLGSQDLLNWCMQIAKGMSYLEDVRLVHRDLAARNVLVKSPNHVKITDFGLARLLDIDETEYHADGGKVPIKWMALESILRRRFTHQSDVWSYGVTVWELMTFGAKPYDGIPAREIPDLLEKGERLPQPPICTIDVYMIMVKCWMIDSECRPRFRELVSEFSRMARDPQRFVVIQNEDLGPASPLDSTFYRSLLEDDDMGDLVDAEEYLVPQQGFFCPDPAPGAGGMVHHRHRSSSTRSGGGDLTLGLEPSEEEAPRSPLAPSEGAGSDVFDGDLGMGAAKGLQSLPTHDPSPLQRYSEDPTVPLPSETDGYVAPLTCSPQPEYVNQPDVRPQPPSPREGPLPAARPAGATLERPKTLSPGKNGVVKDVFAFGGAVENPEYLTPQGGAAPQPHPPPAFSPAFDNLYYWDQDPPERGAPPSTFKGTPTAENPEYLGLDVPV
EGFR wt, sequence (P00533 25-1210): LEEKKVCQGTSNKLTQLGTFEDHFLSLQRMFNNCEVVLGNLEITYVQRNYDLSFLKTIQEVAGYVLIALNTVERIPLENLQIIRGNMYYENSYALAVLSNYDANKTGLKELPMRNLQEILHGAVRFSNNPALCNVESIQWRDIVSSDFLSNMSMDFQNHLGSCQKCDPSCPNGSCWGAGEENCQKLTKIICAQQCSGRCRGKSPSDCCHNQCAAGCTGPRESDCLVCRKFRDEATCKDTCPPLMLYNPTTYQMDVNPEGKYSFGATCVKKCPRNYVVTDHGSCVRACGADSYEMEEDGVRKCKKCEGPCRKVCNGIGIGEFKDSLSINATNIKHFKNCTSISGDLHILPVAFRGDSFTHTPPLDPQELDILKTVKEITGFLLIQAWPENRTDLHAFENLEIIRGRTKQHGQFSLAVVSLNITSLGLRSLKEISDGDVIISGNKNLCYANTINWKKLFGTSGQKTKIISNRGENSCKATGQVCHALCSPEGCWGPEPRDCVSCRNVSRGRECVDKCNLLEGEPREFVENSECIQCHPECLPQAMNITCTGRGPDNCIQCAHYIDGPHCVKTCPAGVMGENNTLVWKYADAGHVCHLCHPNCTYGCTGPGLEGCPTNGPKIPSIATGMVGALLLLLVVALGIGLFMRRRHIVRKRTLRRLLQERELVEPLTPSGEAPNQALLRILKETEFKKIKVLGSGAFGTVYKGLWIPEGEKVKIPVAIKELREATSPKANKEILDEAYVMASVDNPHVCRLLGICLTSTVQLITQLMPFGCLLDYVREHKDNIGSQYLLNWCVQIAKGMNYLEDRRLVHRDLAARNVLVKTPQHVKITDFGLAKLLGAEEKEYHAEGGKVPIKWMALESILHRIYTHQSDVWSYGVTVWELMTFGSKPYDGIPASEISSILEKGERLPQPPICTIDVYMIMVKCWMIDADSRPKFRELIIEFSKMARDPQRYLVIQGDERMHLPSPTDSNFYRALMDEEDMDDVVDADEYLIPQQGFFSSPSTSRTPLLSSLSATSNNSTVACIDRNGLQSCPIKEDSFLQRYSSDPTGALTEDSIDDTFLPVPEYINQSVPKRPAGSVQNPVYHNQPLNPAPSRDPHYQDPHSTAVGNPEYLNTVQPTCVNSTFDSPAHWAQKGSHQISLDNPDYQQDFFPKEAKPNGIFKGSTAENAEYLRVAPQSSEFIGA
EGFR T790ML858R, sequence (P00533 25-1210 T790M/L858R): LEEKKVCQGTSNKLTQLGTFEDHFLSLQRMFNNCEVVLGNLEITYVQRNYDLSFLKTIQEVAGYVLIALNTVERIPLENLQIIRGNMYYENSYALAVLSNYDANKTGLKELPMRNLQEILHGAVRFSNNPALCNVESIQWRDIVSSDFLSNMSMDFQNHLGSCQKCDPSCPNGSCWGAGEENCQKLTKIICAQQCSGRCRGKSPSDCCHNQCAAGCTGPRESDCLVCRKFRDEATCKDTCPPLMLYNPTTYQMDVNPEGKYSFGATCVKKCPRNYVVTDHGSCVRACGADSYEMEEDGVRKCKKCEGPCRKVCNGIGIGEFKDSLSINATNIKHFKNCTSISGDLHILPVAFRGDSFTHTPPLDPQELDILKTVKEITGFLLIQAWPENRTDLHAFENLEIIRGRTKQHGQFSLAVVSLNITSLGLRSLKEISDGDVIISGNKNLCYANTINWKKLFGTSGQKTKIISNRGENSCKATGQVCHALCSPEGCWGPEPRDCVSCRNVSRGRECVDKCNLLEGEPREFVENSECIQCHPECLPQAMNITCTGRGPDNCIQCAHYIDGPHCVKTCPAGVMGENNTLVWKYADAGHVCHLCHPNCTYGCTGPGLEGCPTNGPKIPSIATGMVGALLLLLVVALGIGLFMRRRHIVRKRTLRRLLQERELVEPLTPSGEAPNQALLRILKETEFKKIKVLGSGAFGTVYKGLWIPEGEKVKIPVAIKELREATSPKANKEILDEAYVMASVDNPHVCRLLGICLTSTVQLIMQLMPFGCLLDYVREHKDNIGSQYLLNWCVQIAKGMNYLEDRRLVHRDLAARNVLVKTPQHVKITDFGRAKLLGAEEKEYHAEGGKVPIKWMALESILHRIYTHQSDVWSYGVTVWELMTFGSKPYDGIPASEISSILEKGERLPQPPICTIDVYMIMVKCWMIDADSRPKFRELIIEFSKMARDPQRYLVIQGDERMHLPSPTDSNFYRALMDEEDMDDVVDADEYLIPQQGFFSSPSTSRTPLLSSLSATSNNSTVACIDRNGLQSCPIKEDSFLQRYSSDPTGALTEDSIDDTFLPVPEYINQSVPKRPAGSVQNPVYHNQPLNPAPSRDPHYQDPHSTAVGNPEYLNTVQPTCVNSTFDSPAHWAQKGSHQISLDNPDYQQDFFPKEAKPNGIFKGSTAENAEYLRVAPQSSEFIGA
Her2 Exon 20 INSYVMA Ba/F3, sequence (P04626 with tags, fused parts or gaps DUP772-775): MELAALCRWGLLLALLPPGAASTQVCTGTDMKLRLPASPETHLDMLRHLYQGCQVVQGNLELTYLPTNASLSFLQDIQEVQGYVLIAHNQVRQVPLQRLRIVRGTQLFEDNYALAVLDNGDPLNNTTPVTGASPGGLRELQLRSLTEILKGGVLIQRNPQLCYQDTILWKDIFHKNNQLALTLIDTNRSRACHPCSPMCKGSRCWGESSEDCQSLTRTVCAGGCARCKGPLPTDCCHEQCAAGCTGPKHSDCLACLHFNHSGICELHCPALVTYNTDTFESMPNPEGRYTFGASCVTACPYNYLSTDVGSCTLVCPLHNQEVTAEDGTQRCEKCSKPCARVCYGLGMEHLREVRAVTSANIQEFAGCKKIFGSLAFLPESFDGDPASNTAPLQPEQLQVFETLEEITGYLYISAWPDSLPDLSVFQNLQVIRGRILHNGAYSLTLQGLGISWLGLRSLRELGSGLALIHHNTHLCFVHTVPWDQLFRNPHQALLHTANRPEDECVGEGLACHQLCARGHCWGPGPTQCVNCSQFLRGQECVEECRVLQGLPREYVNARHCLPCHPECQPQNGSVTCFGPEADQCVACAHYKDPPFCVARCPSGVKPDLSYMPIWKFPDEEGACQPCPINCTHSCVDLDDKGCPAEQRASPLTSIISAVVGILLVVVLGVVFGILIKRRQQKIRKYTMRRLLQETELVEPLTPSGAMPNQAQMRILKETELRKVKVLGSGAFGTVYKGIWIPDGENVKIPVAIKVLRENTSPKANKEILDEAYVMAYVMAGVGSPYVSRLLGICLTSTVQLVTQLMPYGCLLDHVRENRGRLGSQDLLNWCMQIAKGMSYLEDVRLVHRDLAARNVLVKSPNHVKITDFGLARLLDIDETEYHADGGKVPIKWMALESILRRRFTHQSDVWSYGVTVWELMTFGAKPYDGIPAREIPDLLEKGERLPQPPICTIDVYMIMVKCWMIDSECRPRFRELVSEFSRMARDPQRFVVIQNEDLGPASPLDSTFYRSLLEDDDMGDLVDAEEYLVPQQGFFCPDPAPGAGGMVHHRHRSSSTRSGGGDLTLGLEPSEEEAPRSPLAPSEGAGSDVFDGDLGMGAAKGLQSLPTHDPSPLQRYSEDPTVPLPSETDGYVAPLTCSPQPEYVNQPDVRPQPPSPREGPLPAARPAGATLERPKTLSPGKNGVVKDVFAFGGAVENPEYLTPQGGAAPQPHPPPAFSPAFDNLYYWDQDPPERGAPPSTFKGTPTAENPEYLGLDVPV

Structure (SMILES) | GI50 [1] | IC50 (EGFR T790ML858R) | IC50 (EGFR wt) | IC50 (H1975) | IC50 (A431) | IC50 (HER2 INS YVMA) | GI50 [2]
C=CC(=O)Nc1cc(-c2c(-c3cccc(C(=O)NCCCN4CCN(CC)CC4)c3)[nH]c3nccc(Cl)c23)ccc1C [Example 54, 3-(3-(3-acrylamido-4-methylphenyl)-4-chloro-1H-pyrrolo[2,3-b]pyridin-2-yl)-N-(3-(4-ethylpiperazin-1-yl)propyl)benzamide] | 1000 to 10000 nM | ≤ 100 nM | ≤ 100 nM | 100 to 500 nM | 1000 to 100000 nM | 100 to 500 nM | 1000 to 10000 nM
C=CC(=O)Nc1cc(-c2c(-c3ccnc(N4CCN(C)CC4)c3)[nH]c3ncc(C(=O)OC(C)C)cc23)cc(F)c1C [Example 180, isopropyl 3-(3-acrylamido-5-fluoro-4-methylphenyl)-2-(2-(4-methylpiperazin-1-yl)pyridin-4-yl)-1H-pyrrolo[2,3-b]pyridine-5-carboxylate] | 100 to 500 nM | ≤ 100 nM | ≤ 100 nM | 500 to 1000 nM | 1000 to 100000 nM | ≤ 100 nM | 100 to 500 nM
C=CC(=O)Nc1cc(-c2c(-c3cnc(N4CCN(C)CC4)s3)[nH]c3ncc(C(=O)OC(C)C)cc23)ccc1C [Example 169, isopropyl 3-(3-acrylamido-4-methylphenyl)-2-(2-(4-methylpiperazin-1-yl)thiazol-5-yl)-1H-pyrrolo[2,3-b]pyridine-5-carboxylate] | 100 to 500 nM | ≤ 100 nM | ≤ 100 nM | 1000 to 100000 nM | 1000 to 100000 nM | ≤ 100 nM | 500 to 1000 nM
C=CC(=O)N1CCc2ccc(-c3c(-c4ccc(CN(C)C)cc4)[nH]c4nccc(OCC)c34)cc21 [Example 106, 1-(6-(2-(4-((dimethylamino)methyl)phenyl)-4-ethoxy-1H-pyrrolo[2,3-b]pyridin-3-yl)indolin-1-yl)prop-2-en-1-one] | 100 to 500 nM | ≤ 100 nM | ≤ 100 nM | ≤ 100 nM | 500 to 1000 nM | ≤ 100 nM | 100 to 500 nM
C=CC(=O)Nc1cc(-c2c(-c3ccc(CCO)cc3)[nH]c3ncc(C(=O)OC(C)C)cc23)ccc1C [Example 168, isopropyl 3-(3-acrylamido-4-methylphenyl)-2-(4-(2-hydroxyethyl)phenyl)-1H-pyrrolo[2,3-b]pyridine-5-carboxylate] | 500 to 1000 nM | 100 to 500 nM | ≤ 100 nM | 1000 to 100000 nM | 1000 to 100000 nM | 100 to 500 nM | 500 to 1000 nM
C=CC(=O)Nc1cc(-c2c(-c3ccc(N4CCN(C)CC4)cc3)[nH]c3ncc(C(=O)NCc4ccc(CN5CCN(C)CC5)cc4)cc23)ccc1C [Example 122, 3-(3-acrylamido-4-methylphenyl)-N-(4-((4-methylpiperazin-1-yl)methyl)benzyl)-2-(4-(4-methylpiperazin-1-yl)phenyl)-1H-pyrrolo[2,3-b]pyridine-5-carboxamide] | 1000 to 10000 nM | ≤ 100 nM | ≤ 100 nM | 1000 to 100000 nM | 1000 to 100000 nM | ≤ 100 nM | 1000 to 10000 nM
C=CC(=O)Nc1cc(-c2c(-c3ccc(OCCN(C)C)cc3)[nH]c3ncc(C(=O)OC(C)C)c(C)c23)ccc1C [Example 205, isopropyl 3-(3-acrylamido-4-methylphenyl)-2-(4-(2-(dimethylamino)ethoxy)phenyl)-4-methyl-1H-pyrrolo[2,3-b]pyridine-5-carboxylate] | ≤ 100 nM | ≤ 100 nM | ≤ 100 nM | 100 to 500 nM | 1000 to 100000 nM | ≤ 100 nM | 100 to 500 nM
C=CC(=O)Nc1cc(-c2c(-c3ccnc(N4CCOCC4)c3)[nH]c3ncc(C(=O)OC(C)C)cc23)ccc1C [Example 166, isopropyl 3-(3-acrylamido-4-methylphenyl)-2-(2-morpholinopyridin-4-yl)-1H-pyrrolo[2,3-b]pyridine-5-carboxylate] | 1000 to 10000 nM | 100 to 500 nM | ≤ 100 nM | 1000 to 100000 nM | 1000 to 100000 nM | 500 to 1000 nM | 1000 to 10000 nM

The next lines start with the values.

GI50 [1] | IC50 (EGFR T790ML858R) | IC50 (EGFR wt) | IC50 (H1975) | IC50 (A431) | IC50 (HER2 INS YVMA) | GI50 [2] | Structure (SMILES)
> 10000 nM | 100 to 500 nM | 100 to 500 nM | > 10000 nM | > 10000 nM | 500 to 1000 nM | > 10000 nM | C=CC(=O)Nc1cc(-c2c(-c3ccc(N4CCN(C)CC4)cc3)[nH]c3ncc(C(=O)NCC4CCN(C)CC4)cc23)ccc1C [Example 129, 3-(3-acrylamido-4-methylphenyl)-2-(4-(4-methylpiperazin-1-yl)phenyl)-N-((1-methylpiperidin-4-yl)methyl)-1H-pyrrolo[2,3-b]pyridine-5-carboxamide]
500 to 1000 nM | ≤ 100 nM | ≤ 100 nM | 100 to 500 nM | 1000 to 100000 nM | ≤ 100 nM | 500 to 1000 nM | C=CC(=O)Nc1cc(-c2c(-c3ccc(N4CCN(C)CC4)cc3)[nH]c3ncc(C(=O)OC4COC4)cc23)ccc1C [Example 141, oxetan-3-yl 3-(3-acrylamido-4-methylphenyl)-2-(4-(4-methylpiperazin-1-yl)phenyl)-1H-pyrrolo[2,3-b]pyridine-5-carboxylate]
1000 to 10000 nM | 100 to 500 nM | ≤ 100 nM | 1000 to 100000 nM | > 10000 nM | 500 to 1000 nM | 1000 to 10000 nM | C=CC(=O)Nc1cc(-c2c(-c3ccc(N4CCN(S(=O)(=O)CC)CC4)cc3)[nH]c3ncc(C(=O)OC(C)C)cc23)ccc1C [Example 184, isopropyl 3-(3-acrylamido-4-methylphenyl)-2-(4-(4-(ethylsulfonyl)piperazin-1-yl)phenyl)-1H-pyrrolo[2,3-b]pyridine-5-carboxylate]
> 10000 nM | 100 to 500 nM | ≤ 100 nM | > 10000 nM | > 10000 nM | ≤ 100 nM | > 10000 nM | C=CC(=O)Nc1cc(-c2c(-c3ccc(N4CCN(C)CC4)cc3)[nH]c3ncc(C(=O)NCc4cccc(NC(C)=O)c4)cc23)ccc1C [Example 121, N-(3-acetamidobenzyl)-3-(3-acrylamido-4-methylphenyl)-2-(4-(4-methylpiperazin-1-yl)phenyl)-1H-pyrrolo[2,3-b]pyridine-5-carboxamide]
1000 to 10000 nM | 100 to 500 nM | ≤ 100 nM | 1000 to 100000 nM | > 10000 nM | 1000 to 10000 nM | 1000 to 10000 nM | C=CC(=O)Nc1cc(-c2c(-c3ccc(N4CCN(C)CC4)cc3)[nH]c3ncc(C(=O)OC(C)C)cc23)c(C)cc1C [Example 202, isoproyl 3-(5-acrylamido-2,4-dimethylphenyl)-2-(4-(4-methylpiperazin-1-yl)phenyl)-1H-pyrrolo[2,3-b]pyridine-5-carboxylate 2,2,2-trifluoroacetate]
> 10000 nM | 100 to 500 nM | ≤ 100 nM | > 10000 nM | > 10000 nM | 500 to 1000 nM | > 10000 nM | C=CC(=O)Nc1cc(-c2c(-c3ccc(N4CCN(C)CC4)cc3)[nH]c3ncc(C(=O)NCc4ccc(NC(C)=O)cc4)cc23)ccc1C [Example 132, N-(4-acetamidobenzyl)-3-(3-acrylamido-4-methylphenyl)-2-(4-(4-methylpiperazin-1-yl)phenyl)-1H-pyrrolo[2,3-b]pyridine-5-carboxamide]
500 to 1000 nM | ≤ 100 nM | ≤ 100 nM | 100 to 500 nM | 1000 to 100000 nM | 100 to 500 nM | 500 to 1000 nM | C=CC(=O)Nc1cc(-c2c(-c3ccc(N4CCN(C)CC4)cc3)[nH]c3ncc(C(=O)OC4CCCC4)cc23)ccc1C [Example 139, cyclopentyl 3-(3-acrylamido-4-methylphenyl)-2-(4-(4-methylpiperazin-1-yl)phenyl)-1H-pyrrolo[2,3-b]pyridine-5-carboxylate]
100 to 500 nM | ≤ 100 nM | ≤ 100 nM | 500 to 1000 nM | 500 to 1000 nM | ≤ 100 nM | 100 to 500 nM | C=CC(=O)Nc1cc(-c2c(-c3ccc(N4CCN(C)CC4)cc3)[nH]c3ncc(C(=O)NCc4ccccc4)cc23)ccc1C [Example 118, 3-(3-acrylamido-4-methylphenyl)-N-benzyl-2-(4-(4-methylpiperazin-1-yl)phenyl)-1H-pyrrolo[2,3-b]pyridine-5-carboxamide 2,2,2-trifluoroacetate]

From patent US20220370440A1 (Lead Discovery Center GmbH, priority 2018, published 2022)
